Measured values from patent US20040097420A1, “Proteasome regulation of NF-kB activity” (Harvard College, priority 1994, published 2004).
Non-standard residues stand in square brackets, D forms with d. Residues, ends and D or L forms follow the SMILES beside them. ξ: configuration not given here. *: point of attachment. Phe(4-NO2) = N[C@@H](Cc1ccc([N+](=O)[O-])cc1)C(=O)O; Tyr(3,5-Br2) = N[C@@H](Cc1cc(Br)c(O)c(Br)c1)C(=O)O; Tyr(3,5-I2) = N[C@@H](Cc1cc(I)c(O)c(I)c1)C(=O)O; Phe(4-Cl) = N[C@@H](Cc1ccc(Cl)cc1)C(=O)O; 1Nal = N[C@@H](Cc1cccc2ccccc12)C(=O)O; 2Nal = N[C@@H](Cc1ccc2ccccc2c1)C(=O)O; hPhe = N[C@@H](CCc1ccccc1)C(=O)O; tBuAla = CC(C)(C)C[C@H](N)C(=O)O; Cha = N[C@@H](CC1CCCCC1)C(=O)O; Ile(3ξ) = CCC(C)[C@H](N)C(=O)O; AllylGly = C=CC[C@H](N)C(=O)O; Phg = N[C@H](C(=O)O)c1ccccc1; Nle = CCCC[C@H](N)C(=O)O; Pra = C#CC[C@H](N)C(=O)O; Nva = CCC[C@H](N)C(=O)O; Abu = CC[C@H](N)C(=O)O; Cbz = O=C(OCc1ccccc1)*; Boc = CC(C)(C)OC(=O)*; Bn = c1ccc(C*)cc1

Tests used:
20S proteasome [1] = biological target: T1, 20S proteasome (Oryctolagus cuniculus, UniProt G1T4Q9); test: Inhibition of the 20S proteasome (kinetic experiments, Ki); format: biochemical, Rabbit; details: Table V, miscellaneous tripeptide aldehydes; 20S proteasome
T1 sequence (G1T4Q9 60-263): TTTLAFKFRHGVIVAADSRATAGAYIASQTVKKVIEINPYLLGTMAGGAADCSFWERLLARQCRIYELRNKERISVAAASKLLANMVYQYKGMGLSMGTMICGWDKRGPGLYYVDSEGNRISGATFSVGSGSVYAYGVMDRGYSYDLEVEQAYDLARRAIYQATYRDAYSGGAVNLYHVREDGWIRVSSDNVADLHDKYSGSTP
From the text: (§1) Tables I-III summarize results from kinetic experiments that measured the inhibition of the 20S and 26S proteasomes, as well as cathepsin B and calpain. In these tables, Ki values are reported, which are dissociation constants for the equilibrium that is established when enzyme and inhibitor interact to form the enzyme:inhibitor complex.
(§2) The substances and assay conditions are briefly summarized in the footnotes to Table I. MG 101 and MG 102, also known as Calpain Inhibitor I and II, were purchased from Calbiochem as catalogue products.
(§3) Table V summarizes data for the inhibition of the 20S proteasome by various tripeptide aldehyde inhibitors.

20S Proteasome [2] = biological target: T2, 20S Proteasome (Oryctolagus cuniculus, UniProt G1T4Q9); test: as above; format: biochemical, Rabbit; set-up: Ki 20 S; substrate Suc-LLVY-AMC; details: Rabbit muscle, SDS-activated; substrate Suc-LLVY-AMC
T2 sequence (G1T4Q9 1-263): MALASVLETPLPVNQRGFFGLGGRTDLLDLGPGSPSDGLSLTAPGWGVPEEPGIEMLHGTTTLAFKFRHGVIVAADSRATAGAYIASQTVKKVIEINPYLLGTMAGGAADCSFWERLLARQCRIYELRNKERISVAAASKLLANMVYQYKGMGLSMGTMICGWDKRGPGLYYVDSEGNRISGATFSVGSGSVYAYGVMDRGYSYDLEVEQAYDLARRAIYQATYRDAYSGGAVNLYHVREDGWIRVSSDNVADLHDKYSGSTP
From the text: as §1, §2, §3

26S proteasome = biological target: T3, 26S proteasome (Oryctolagus cuniculus, UniProt G1T4Q9); test: Inhibition of the 26S proteasome (kinetic experiments, Ki); format: biochemical; details: Rabbit muscle; substrate Suc-LLVY-AMC; [Mg:ATP] = 2 mM
T3 sequence (G1T4Q9 1-263): T2 sequence (G1T4Q9 1-263)
From the text: as §1, §2

cathepsin B = biological target: T4, cathepsin B (Bos taurus, UniProt P07688); test: Inhibition of cathepsin B (Ki); format: biochemical; details: Bovine spleen; substrate Z-RR-AMC; [DTT] = 2 mM, [EDTA] = 5 mM, pH 5.5, 37° C.; read-out: Ki Cat B
T4 construct: Bovine spleen; Substrate: Z-RR-AMC; from tissue; host or cells: bovine spleen
From the text: as §1

[3] = biological target: calpain, 80 kD catalytic subunit; test: Inhibition of calpain (Ki); format: biochemical; details: Rabbit muscle, substrate Suc-LLVY-AMC, [CaCl2] = 1 mM, [DTT] = 2 mM, pH 7.8, 20° C.
From the text: as §1

## CC(C)C[C@H](NC(=O)OCc1ccccc1)C(=O)N[C@@H](CC(C)C)C(=O)N[C@H](C=O)c1ccccc1 [MG 133] (Cbz-Leu-Leu-[Phg]-aldehyde)
20S proteasome [1]
  Ki: 470 nM

## C#CC[C@@H](C=O)NC(=O)[C@H](CC(C)C)NC(=O)[C@H](CC(C)C)NC(=O)OCc1ccccc1 [MG 140] (Cbz-Leu-Leu-[Pra]-aldehyde)
20S proteasome [1]
  Ki: 28 nM

## CC(C)C[C@H](NC(=O)OCc1ccccc1)C(=O)N[C@@H](CC(C)C)C(=O)N[C@H](C=O)Cc1ccc([N+](=O)[O-])cc1 [MG 135] (Cbz-Leu-Leu-[Phe(4-NO2)]-aldehyde)
20S proteasome [1]
  Ki: 290 nM

## COc1ccc(C[C@@H](C=O)NC(=O)[C@H](CC(C)C)NC(=O)[C@H](CC(C)C)NC(=O)OCc2ccccc2)cc1 [MG 152] (Cbz-Leu-Leu-Tyr(Me)-aldehyde)
20S proteasome [1]
  Ki: 6 nM

## CCCC[C@@H](C=O)NC(=O)[C@H](CC(C)C)NC(=O)OCc1ccccc1 [MG 105, Z-Leu-Nle-H, reference compound]
20S Proteasome [2]
  Ki: 15000 nM

## CC[C@@H](C=O)NC(=O)[C@H](CC(C)C)NC(=O)[C@H](CC(C)C)NC(=O)OCc1ccccc1 [MG 119] (Cbz-Leu-Leu-[Abu]-aldehyde)
26S proteasome
  Ki: 280 nM
Cathepsin B
  Ki: 18 nM
[3]
  Ki: 15 nM
20S Proteasome [2]
  Ki: 50 nM

## CC(C)C[C@@H](C=O)NC(=O)[C@H](CC(C)C)NC(=O)[C@H](CC(C)C)NC(=O)OCc1ccccc1 [MG 132] (Cbz-Leu-Leu-Leu-aldehyde)
20S proteasome [1]
  Ki: 9 nM

## CC(C)C[C@H](NC(=O)OCc1ccccc1)C(=O)N[C@@H](CC(C)C)C(=O)N[C@H](C=O)Cc1ccc(O)cc1 [MG 131] (Cbz-Leu-Leu-Tyr-aldehyde)
20S proteasome [1]
  Ki: 6 nM

## CC(C)C[C@H](NC(=O)OCc1ccccc1)C(=O)N[C@@H](CC(C)C)C(=O)N[C@@H](C)C=O [MG 111] (Cbz-Leu-Leu-Ala-aldehyde)
26S proteasome
  Ki: 690 nM
Cathepsin B
  Ki: 6 nM
[3]
  Ki: 11 nM
20S Proteasome [2]
  Ki: 210 nM

## CCC[C@@H](C=O)NC(=O)[C@H](CC(C)C)NC(=O)[C@H](CC(C)C)NC(=O)OCc1ccccc1 [MG 115, Z-Leu-Leu-Nva-H] (Cbz-Leu-Leu-[Nva]-aldehyde)
26S proteasome
  Ki: 78 nM
Cathepsin B
  Ki: 10 nM
[3]
  Ki: 10 nM
20S Proteasome [2]
  Ki: 21 nM

## CC(C)C[C@@H](C=O)NC(=O)[C@H](CC(C)C)NC(=O)[C@H](Cc1ccc2ccccc2c1)NC(=O)OCc1ccccc1 [MG 165] (Cbz-[2Nal]-Leu-Leu-aldehyde)
20S proteasome [1]
  Ki: 0.24 nM

## CCC[C@@H](C=O)NC(=O)[C@H](CC(C)C)NC(=O)[C@H](Cc1cccc2ccccc12)NC(=O)OCc1ccccc1 [MG 142] (Cbz-[1Nal]-Leu-[Nva]-aldehyde)
20S proteasome [1]
  Ki: 0.3 nM

## CC(C)C[C@@H](C=O)NC(=O)[C@H](CC(C)C)NC(=O)[C@H](CC(C)C)NC(=O)OC(C)(C)C [MG 155] (Boc-Leu-Leu-Leu-aldehyde)
20S proteasome [1]
  Ki: 54 nM

## CC(C)C[C@H](NC(=O)OCc1ccccc1)C(=O)N[C@@H](CC(C)C)C(=O)N[C@H](C=O)Cc1ccc2ccccc2c1 [MG 121, Z-Leu-Leu-Nal-H] (Cbz-Leu-Leu-[2Nal]-aldehyde)
26S proteasome
  Ki: 70 nM
Cathepsin B
  Ki: 73 nM
[3]
  Ki: 62 nM
20S Proteasome [2]
  Ki: 25 nM

## CC(C)C[C@H](NC(=O)OCc1ccccc1)C(=O)N[C@@H](CC(C)C)C(=O)N[C@H](C=O)Cc1cc(I)c(O)c(I)c1 [MG 161] (Cbz-Leu-Leu-[Tyr(3,5-I2)]-aldehyde)
20S proteasome [1]
  Ki: 64 nM

## CCC(C)[C@@H](C=O)NC(=O)[C@H](CC(C)C)NC(=O)[C@H](CC(C)C)NC(=O)OCc1ccccc1 (stereo partly drawn) [MG 134] (Cbz-Leu-Leu-[Ile(3ξ)]-aldehyde)
20S proteasome [1]
  Ki: 100 nM

## CCC[C@@H](C=O)NC(=O)[C@H](CC(C)C)NC(=O)[C@H](CC1CCCCC1)NC(=O)OCc1ccccc1 [MG 141] (Cbz-[Cha]-Leu-[Nva]-aldehyde)
20S proteasome [1]
  Ki: 50 nM

## CC(C)C[C@H](NC(=O)OCc1ccccc1)C(=O)N[C@@H](CC(C)C)C(=O)N[C@H](C=O)C(C)C [MG 120] (Cbz-Leu-Leu-Val-aldehyde)
26S proteasome
  Ki: 560 nM
Cathepsin B
  Ki: 36 nM
[3]
  Ki: 14 nM
20S Proteasome [2]
  Ki: 94 nM

## CC(C)C[C@H](NC(=O)OCc1ccccc1)C(=O)N[C@@H](CC(C)C)C(=O)N[C@H](C=O)Cc1ccc(Cl)cc1 [MG 158] (Cbz-Leu-Leu-[Phe(4-Cl)]-aldehyde)
20S proteasome [1]
  Ki: 7 nM

## CC(C)C[C@@H](C=O)NC(=O)[C@H](C)NC(=O)[C@H](Cc1cccc2ccccc12)NC(=O)OCc1ccccc1 [MG 168] (Cbz-[1Nal]-Ala-Leu-aldehyde)
20S proteasome [1]
  Ki: 0.49 nM

## CSCC[C@@H](C=O)NC(=O)[C@H](CC(C)C)NC(=O)[C@H](CC(C)C)NC(C)=O [MG 102, reference compound] (Ac-Leu-Leu-Met-aldehyde)
26S proteasome
  Ki: 28000 nM
Cathepsin B
  Ki: 94 nM
[3]
  Ki: 120 nM
20S Proteasome [2]
  Ki: 1000 nM

## CCCC[C@@H](C=O)NC(=O)[C@H](CC(C)C)NC(=O)[C@H](CC(C)C)NC(=O)OCc1ccccc1 [MG 114, Z-Leu-Leu-Nle-H] (Cbz-Leu-Leu-[Nle]-aldehyde)
26S proteasome
  Ki: 120 nM
Cathepsin B
  Ki: 7 nM
[3]
  Ki: 12 nM
20S Proteasome [2]
  Ki: 47 nM

## CC(C)C[C@H](NC(=O)OCc1ccccc1)C(=O)N[C@@H](CC(C)C)C(=O)N[C@H](C=O)CC1CCCCC1 [MG 129] (Cbz-Leu-Leu-[Cha]-aldehyde)
20S proteasome [1]
  Ki: 60 nM

## CC(C)C[C@H](NC(=O)OCc1ccccc1)C(=O)N[C@@H](CC(C)C)C(=O)NCC=O [MG 118] (Cbz-Leu-Leu-Gly-aldehyde)
26S proteasome
  Ki: 28000 nM
Cathepsin B
  Ki: 94 nM
[3]
  Ki: 120 nM
20S Proteasome [2]
  Ki: 3800 nM

## CC(C)C[C@@H](C=O)NC(=O)[C@H](Cc1cccc2ccccc12)NC(=O)[C@H](Cc1cccc2ccccc12)NC(=O)OCc1ccccc1 [MG 166] (Cbz-[1Nal]-[1Nal]-Leu-aldehyde)
20S proteasome [1]
  Ki: 0.035 nM

## C=CC[C@@H](C=O)NC(=O)[C@H](CC(C)C)NC(=O)[C@H](CC(C)C)NC(=O)OCc1ccccc1 [MG 139] (Cbz-Leu-Leu-[AllylGly]-aldehyde)
20S proteasome [1]
  Ki: 20 nM

## CC(C)C[C@H](NC(=O)OCc1ccccc1)C(=O)N[C@@H](CC(C)C)C(=O)N[C@H](C=O)Cc1c[nH]c2ccccc12 [MG 151] (Cbz-Leu-Leu-Trp-aldehyde)
20S proteasome [1]
  Ki: 10 nM

## CC(C)C[C@@H](C=O)NC(=O)[C@H](Cc1cccc2ccccc12)NC(=O)[C@H](Cc1ccc2ccccc2c1)NC(=O)OCc1ccccc1 [MG 167] (Cbz-[2Nal]-[1Nal]-Leu-aldehyde)
20S proteasome [1]
  Ki: 0.015 nM

## CC(C)C[C@@H](C=O)NC(=O)[C@H](CC(C)C)NC(=O)[C@H](Cc1cccc2ccccc12)NC(=O)OCc1ccccc1 [MG 150] (Cbz-[1Nal]-Leu-Leu-aldehyde)
20S proteasome [1]
  Ki: 0.4 nM

## CC(=O)N[C@@H](CC(C)C)C(=O)N[C@@H](CC(C)C)C(=O)N[C@H](C=O)CC(C)C [MG 154] (Ac-Leu-Leu-Leu-aldehyde)
20S proteasome [1]
  Ki: 75 nM

## CC(C)C[C@H](NC(=O)OCc1ccccc1)C(=O)N[C@@H](CC(C)C)C(=O)N[C@H](C=O)CC(C)(C)C [MG 136] (Cbz-Leu-Leu-[tBuAla]-aldehyde)
20S proteasome [1]
  Ki: 1000 nM

## CC(C)C[C@H](NC(=O)OCc1ccccc1)C(=O)N[C@@H](CC(C)C)C(=O)N[C@H](C=O)Cc1ccc(OCc2ccccc2)cc1 [MG 153] (Cbz-Leu-Leu-Tyr(Bn)-aldehyde)
20S proteasome [1]
  Ki: 280 nM

## CC(C)C[C@H](NC(=O)OCc1ccccc1)C(=O)N[C@@H](CC(C)C)C(=O)N[C@H](C=O)CCc1ccccc1 [MG 124] (Cbz-Leu-Leu-[hPhe]-aldehyde)
20S proteasome [1]
  Ki: 59 nM

## CC(C)C[C@H](NC(=O)OCc1ccccc1)C(=O)N[C@@H](CC(C)C)C(=O)N[C@H](C=O)Cc1cc(Br)c(O)c(Br)c1 [MG 160] (Cbz-Leu-Leu-[Tyr(3,5-Br2)]-aldehyde)
20S proteasome [1]
  Ki: 51 nM
